Laboratory results published in patent US20060276498A1 (Wyeth, priority 2005, published 2006).

Molecular target: T1, human Cot/Tpl2 kinase (Homo sapiens, UniProt P41279)
T1 construct: human Cot/Tpl2 kinase construct encoding residues 30-398; 6His (N); made in house; host or cells: Sf9 insect cells (baculovirus system, BD Biosciences)
Assay: Tpl2/Cot kinase assay, GST-MEK1 phosphorylation detected by ELISA (DELFIA Eu)
Assay type: biochemical
Procedure: Sf9 cells expressing the kinase were lysed in 50 mM NaPhosphate pH=8; 300 mM NaCl; 5 mM imidazole; 0.1 mM EGTA; 25 mM beta-glycerophosphate; 1% TX-100, 1% glycerol; 6 mM beta-mercaptoethanol and protease inhibitors. The lysate was clarified by centrifugation and was loaded onto a Ni-Sepharose column. The column was washed with 50 mM NaPhosphate pH=8; 300 mM NaCl; 15 mM imidazole; 1% glycerol; and 6 mM beta-mercaptoethanol. His-Tpl2 was eluted with 50 mM NaPhosphate pH=8; 300 mM NaCl; 250 mM imidazole; 1% glycerol; and 6 mM beta-mercaptoethanol. The eluted protein was further purified by size exclusion chromatography. Fractions corresponding to monomeric Tpl2 were then used in the assay.
Tpl2/Cot activity was directly assayed using GST-MEK1 as a substrate. GST-MEK1 phosphorylation on serine residues 217 and 221 was detected by ELISA. 0.4 nM Tpl2 was incubated with 35 nM GST-MEK1 in a kinase reaction buffer containing 20 mM MOPS pH=7.2; 50 uM ATP; 20 mM MgCl2; 1 mM DTT; 25 mM β-glycerophosphate; 5 mM EGTA; and 1 mM sodium orthovanadate for 1 h at 30° C. The compounds of the inventions solubilized in 100% DMSO were pre-diluted in assay buffer so that the final concentration of DMSO in the reaction was 1%. The kinase reaction was carried out in 100 ul volume on 96 well plates. The kinase reaction was then stopped with the addition of 100 mM EDTA. […] After a 1 hour incubation at room temperature, the detection plate was washed 4 times with TBST (TBS+0.05% Tween 20) and then incubated for another hour at room temperature with anti phospho-MEK1 antibody (Cell Signaling) 1:1000 in 10 mM MOPS 7.5; 150 mM NaCl; 0.05% Tween 20; 0.1% Gelatin; 0.02% NaN3; and 1% BSA. The detection plate was washed again and incubated for 30 min with DELFIA Europium (Eu) labeled goat anti-rabbit IgG (Perkin-Elmer), 1:4000 in the same buffer used for the primary incubation. After a final wash, Eu detection solution was added to each well and the Eu signal was measured in a Wallac Victor^2 Multilabel Counter. IC50 calculations were preformed using the XLfit software package (IDBS, Guildford, UK).

[1] = Table 1, 0.4 nM Tpl2, 35 nM GST-MEK1, 50 uM ATP, 1 h at 30° C.
[2] = Table 2, additional representative compounds

T1 sequence (P41279 30-398): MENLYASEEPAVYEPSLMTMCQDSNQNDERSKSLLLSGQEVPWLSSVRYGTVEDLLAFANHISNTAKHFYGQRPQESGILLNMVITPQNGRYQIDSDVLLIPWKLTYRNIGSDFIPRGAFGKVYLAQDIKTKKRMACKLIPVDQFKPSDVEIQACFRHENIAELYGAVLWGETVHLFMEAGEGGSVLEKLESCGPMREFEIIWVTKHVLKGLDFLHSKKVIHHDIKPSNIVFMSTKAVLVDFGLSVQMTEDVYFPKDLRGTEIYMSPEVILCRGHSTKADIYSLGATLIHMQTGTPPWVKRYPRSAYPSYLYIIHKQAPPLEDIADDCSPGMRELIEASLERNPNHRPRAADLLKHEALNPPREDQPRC

Structure (SMILES)	IC50 [1] [µM]	IC50 [2] [µM]
N#Cc1cnc2cnc(NCCN3CCOCC3)cc2c1Nc1ccc(Nc2ccccc2)cc1 [Example 10, 6-(2-morpholinoethylamino)-4-(4-(phenylamino)phenylamino)-1,7-naphthyridine-3-carbonitrile]	7.6	–
N#Cc1cnc2cnc(NCc3cccnc3)cc2c1NC1CCCCC1 [Example 114, 4-(cyclohexylamino)-6-[(pyridin-3-ylmethyl)amino]-1,7-naphthyridine-3-carbonitrile]	–	0.47
N#Cc1cnc2cnc(F)cc2c1Nc1ccc2[nH]ccc2c1 [Example 102, 6-fluoro-4-(1H-indol-5-ylamino)-1,7-naphthyridine-3-carbonitrile]	–	> 40
N#Cc1cnc2cnc(F)cc2c1Nc1ccc(Cc2ccccc2)cc1 [Example 106, 4-[(4-benzylphenyl)amino]-6-fluoro-1,7-naphthyridine-3-carbonitrile]	–	0.3
CN1CCN(CCCNc2cc3c(Nc4ccc(F)c(Cl)c4)c(C#N)cnc3cn2)CC1 [Example 45, 4-[(3-chloro-4-fluorophenyl)amino]-6-{[3-(4-methylpiperazin-1-yl)propyl]amino}-1,7-naphthyridine-3-carbonitrile]	20	–
CC(C)(C)Nc1cc2c(Nc3ccc(F)c(Cl)c3)c(C#N)cnc2cn1 [Example 143, 6-(tert-butylamino)-4-[(3-chloro-4-fluorophenyl)amino]-1,7-naphthyridine-3-carbonitrile]	–	> 40
N#Cc1cnc2cnc(NCCN3CCOCC3)cc2c1Nc1ccc(Br)cc1 [Example 5, 4-(4-bromophenylamino)-6-(2-morpholinoethylamino)-1,7-naphthyridine-3-carbonitrile]	> 40	–
N#Cc1cnc2cnc(Nc3ccc(F)c(Cl)c3)cc2c1NC1CCCC1 [Example 92, 6-(3-chloro-4-fluorophenylamino)-4-(cyclopentylamino)-1,7-naphthyridine-3-carbonitrile]	8	–
N#Cc1cnc2cnc(NCCN3CCOCC3)cc2c1Nc1cccc(-c2ccco2)c1 [Example 80, 4-(3-(furan-2-yl)phenylamino)-6-(2-morpholinoethylamino)-1,7-naphthyridine-3-carbonitrile]	> 10	–
N#Cc1cnc2cnc(NC3CCCC3)cc2c1Nc1ccc(F)c(Cl)c1 [Example 94, 4-(3-Chloro-4-fluoro-phenylamino)-6-cyclopentylamino-[1,7]naphthyridine-3-carbonitrile]	7.6	–
CC(C)c1ccc(Nc2c(C#N)cnc3cnc(F)cc23)cc1 [Example 101, 6-fluoro-4-[(4-isopropylphenyl)amino]-1,7-naphthyridine-3-carbonitrile]	–	> 40
Cc1ccc(Nc2c(C#N)cnc3cnc(NCCN4CCOCC4)cc23)cc1Br [Example 64, 4-[(3-bromo-4-methylphenyl)amino]-6-[(2-morpholin-4-ylethyl)amino]-1,7-naphthyridine-3-carbonitrile]	> 40	–
N#Cc1cnc2cnc(NCc3cccnc3)cc2c1Nc1ccc(OC(F)(F)F)cc1 [Example 33, 6-(pyridin-3-ylmethylamino)-4-(4-(trifluoromethoxy)phenylamino)-1,7-naphthyridine-3-carbonitrile]	> 40	–
N#Cc1cnc2cnc(NCCN3CCOCC3)cc2c1Nc1ccc(F)cc1 [Example 4, 4-(4-fluorophenylamino)-6-(2-morpholinoethylamino)-1,7-naphthryidine-3-carbonitrile]	10.7	–
CC(C)(Nc1cc2c(Nc3ccc(F)c(Cl)c3)c(C#N)cnc2cn1)c1ccccc1 [Example 118, 4-[(3-chloro-4-fluorophenyl)amino]-6-[(1-methyl-1-phenylethyl)amino]-1,7-naphthyridine-3-carbonitrile]	–	1.2
N#Cc1cnc2cnc(Nc3c[nH]cn3)cc2c1Nc1ccc(F)c(Cl)c1 [Example 140, 4-[(3-chloro-4-fluorophenyl)amino]-6-{[4(5)imidazolyl]amino}-1,7-naphthyridine-3-carbonitrile]	–	0.079
N#Cc1cnc2cnc(NCc3cccnc3)cc2c1Nc1ccc(Br)cc1 [Example 17, 4-(4-bromophenylamino)-6-(pyridin-3-ylmethylamino)-1,7-naphthyridine-3-carbonitrile]	> 10	–
CC(C)c1cccc(Nc2c(C#N)cnc3cnc(NCCN4CCOCC4)cc23)c1 [Example 37, 4-[(3-isopropylphenyl)amino]-6-[(2-morpholin-4-ylethyl)amino]-1,7-naphthyridine-3-carbonitrile]	> 40	–
N#Cc1cnc2cnc(F)cc2c1Nc1ccc(C(F)(F)F)cc1 [Example 100, 6-fluoro-4-{[4-(trifluoromethyl)phenyl]amino}-1,7-naphthyridine-3-carbonitrile]	–	> 40

Further compounds by falling IC50 [1], results first:

IC50 [1] [µM]	IC50 [2] [µM]	Structure (SMILES)
7	–	C[C@@H](Nc1cc2c(Nc3ccc(F)c(Cl)c3)c(C#N)cnc2cn1)[C@@H](O)c1ccccc1 [Example 53, 4-[(3-chloro-4-fluorophenyl)amino]-6-{[(1R, 2S)-2-hydroxy-1-methyl-2-phenylethyl]amino}-1,7-naphthyridine-3-carbonitrile]
6.2	–	Cc1ccc(Nc2c(C#N)cnc3cnc(N[C@H](C)c4ccccc4)cc23)cc1Br [Example 65]
5	–	CN(C)CCCNc1cc2c(Nc3ccc(F)c(Cl)c3)c(C#N)cnc2cn1 [Example 48, 4-[(3-chloro-4-fluorophenyl)amino]-6-{[3-(dimethylamino)propyl]amino}-1,7-naphthyridine-3-carbonitrile]
1.5	–	N#Cc1cnc2cnc(N[C@@H]3CCCc4ccccc43)cc2c1Nc1ccc(F)c(Cl)c1 [Example 70]
0.41	–	CC[C@@H](Nc1cc2c(Nc3ccc(F)c(Cl)c3)c(C#N)cnc2cn1)c1ccccc1 [Example 51, 4-[(3-chloro-4-fluorophenyl)amino]-6-{[(1R)-1-phenylpropyl]amino}-1,7-naphthyridine-3-carbonitrile]
0.33	–	N#Cc1cnc2cnc(NCc3cccnc3)cc2c1Nc1ccccc1 [Example 95, 4-Phenylamino-6-[(pyridin-3-ylmethyl)-amino]-[1,7]naphthyridine-3-carbonitrile]
0.3	–	N#Cc1cnc2cnc(NCCN3CCOCC3)cc2c1Nc1ccc(Oc2ccccc2)cc1 [Example 41, 6-[(2-morpholin-4-ylethyl)amino]-4-[(4-phenoxyphenyl)amino]-1,7-naphthyridine-3-carbonitrile]
0.05	–	N#Cc1cnc2cnc(NCc3cccnc3)cc2c1Nc1ccc(F)c(Cl)c1 [Example 1, 4-(3-chloro-4-fluorophenylamino)-6-(pyridin-3-ylmethylamino)-1,7-naphthyridine-3-carbonitrile]
0.036	–	CN(C)CCNc1cc2c(Nc3ccc(Cc4ccccc4)cc3)c(C#N)cnc2cn1 [Example 23, 4-(4-benzylphenylamino)-6-(2-(dimethylamino)ethylamino)-1,7-naphthyridine-3-carbonitrile]
0.012	–	C[C@@H](Nc1cc2c(Nc3ccc(F)c(Cl)c3)c(C#N)cnc2cn1)c1ccccc1 [Example 59, 4-[(3-chloro-4-fluorophenyl)amino]-6-{[(1R)-1-phenylethyl]amino}-1,7-naphthyridine-3-carbonitrile]
0.0096	–	CN(C)CCCNc1cc2c(Nc3ccc(Cc4ccccc4)cc3)c(C#N)cnc2cn1 [Example 21, 4-(4-benzylphenylamino)-6-(3-(dimethylamino)propylamino)-1,7-naphthyridine-3-carbonitrile]
